The values below come from patent US4399067A.

Values after ≈ are worked out from the molar mass of the structure shown.

For data set [1], the system named is Bacillus subtilis ATCC 6633. The data set can be described thus: Agar-plate disc-diffusion test. The class given is cell-based. The note with it: compound at 1 mg/ml, 7-mm disc, 24-48 hours at 25-37° C. From the text: | ^b Grown on minimal nutrient agar
(A growth-free zone around the sample is the usual read-out of agar diffusion tests.)

Data set [2] has as its system Staphylococcus aureus. The data set can be described thus: In vivo activity against experimental bacterial infection in mice. The note with it: two doses, dose protecting fifty percent of the test animals.
A short description of data set [3]: Acute toxicity, intravenous, mice. The note with it: mouse, in vivo, administered intravenously to mice.
Data set [4] concerns Streptococcus pyogenes. The data set can be described thus: In vivo activity against experimental bacterial infection in mice. The note with it: two doses, dose protecting fifty percent of the test animals.
Data set [5] deals with Staphylococcus aureus X400. The class given is cell-based. The note with it: agar-dilution; methicillin-resistant strain. The text has this: (§1) The results of the antibacterial testing of a representative compound of formula 1, using the standard agar-dilution test, are summarized in Table II.
^c Methicillinresistant-strain

For data set [6], the system named is Streptococcus Group 9960. The class given is cell-based. The note with it: agar-dilution.
Source text: as §1

For data set [7], the system named is Staphylococcus epidermidis EPI2. The class given is cell-based. The note with it: agar-dilution.
Source text: as §1

The test system of data set [8] is Staphylococcus epidermidis EPI1. The class given is cell-based. The note with it: agar-dilution.
Source text: as §1

The test system of data set [9] is Staphylococcus aureus X1.1. The class given is cell-based. The note with it: agar-dilution.
Source text: as §1

Data set [10] relates to Streptococcus Group D X66. The class given is cell-based. The note with it: agar-dilution.
Source text: as §1

Data set [11] relates to Streptococcus pyogenes C203. The class given is cell-based. The note with it: agar-dilution.
Source text: as §1

In data set [12] the test system is Staphylococcus aureus V41. The class given is cell-based. The note with it: agar-dilution; penicillin-resistant strain.
Source text: as §1
^b Pencillinresistant strain

For the compound `CCCCCCCCCCCCOc1ccc(C(=O)N[C@@H](Cc2c[nH]c3ccccc23)C(=O)N[C@@H](CC(N)=O)C(=O)N[C@@H](CC(=O)O)C(=O)N[C@@H]2C(=O)NCC(=O)N[C@@H](CCCNC(=O)OC(C)(C)C)C(=O)N[C@@H](CC(=O)O)C(=O)N[C@H](C)C(=O)N[C@@H](CC(=O)O)C(=O)NCC(=O)N[C@H](CO)C(=O)N[C@@H]([C@H](C)CC(=O)O)C(=O)N[C@@H](CC(=O)c3ccccc3N)C(=O)O[C@@H]2C)cc1` [Example 1], in data set [1], the “Size of Zone of Inhibition, B. subtilis ATCC 6633 grown on minimal nutrient agar” value worked out at 22 mm.

Turning to `CCCCCCCCCCCCOc1ccc(C(=O)N[C@@H](Cc2c[nH]c3ccccc23)C(=O)N[C@@H](CC(N)=O)C(=O)N[C@@H](CC(=O)O)C(=O)N[C@@H]2C(=O)NCC(=O)N[C@@H](CCCN)C(=O)N[C@@H](CC(=O)O)C(=O)N[C@H](C)C(=O)N[C@@H](CC(=O)O)C(=O)NCC(=O)N[C@H](CO)C(=O)N[C@@H]([C@H](C)CC(=O)O)C(=O)N[C@@H](CC(=O)c3ccccc3N)C(=O)O[C@@H]2C)cc1` [Example 2, NTrp -p-(n-dodecyloxy)benzoyl-A-21978C Nucleus], the “ED50, Staphylococcus aureus, Subcutaneous” value in data set [2] turned out to be 3.35 mg/kg × 2. For the same compound, the LD50 – broadly, the dose expected to kill half of the subjects tested – in data set [3] amounted to 67.5 mg/kg. For the same compound, in data set [4] (oral), the “ED50, Streptococcus pyogenes, Oral” value is recorded as over 200 mg/kg × 2. Also, in data set [4] (subcutaneous), the “ED50, Streptococcus pyogenes, Subcutaneous” value is recorded as 0.31 mg/kg × 2. Moreover, in data set [1], the “Size of Zone of Inhibition, B. subtilis ATCC 6633 grown on minimal nutrient agar” value worked out at 20 mm. For the same compound, the “MIC, Staphylococcus aureus X400” value in data set [5] is 2 µg/mL (≈ 1.14 µM). Also, the “MIC, Streptococcus Group 9960” value in data set [6] came to 1 µg/mL (≈ 0.57 µM). The “MIC, Staphylococcus epidermidis EPI2” value in [7] amounted to 2 µg/mL (≈ 1.14 µM). Moreover, the “MIC, Staphylococcus epidermidis EPI1” value in data set [8] is 4 µg/mL (≈ 2.28 µM). Moreover, the “MIC, Staphylococcus aureus X1.1” value in [9] came to 1 µg/mL (≈ 0.57 µM). Besides, the “MIC, Streptococcus Group D X66” value in data set [10] amounted to 2 µg/mL (≈ 1.14 µM). Also, the “MIC, Streptococcus pyogenes C203” value in data set [11] was determined as 0.25 µg/mL (≈ 0.142 µM). Besides, the “MIC, Staphylococcus aureus V41” value in data set [12] came to 1 µg/mL (≈ 0.57 µM).
